According to publication PMC10495264 (Nature Cell Biology, 2023):
Entries after “also recorded” stand apart in the source; their conditions may differ.

Tests used:
[1] = tested on: mTORC1; experiment: mTORC1 activity in HEK293FT cells (WT and knockout lines), phosphorylation of S6K, 4E-BP1, Grb10, TFEB by immunoblot; assay type: cell-based, human
Description: Data represent the median fluorescence intensity of OPP Alexa Fluor 488; n = 6 biological replicates from two independent experiments. b,c,e,g,i,k,l, Data are the mean ± s.e.m. *P < 0.05, **P < 0.005, ***P < 0.0005. […] Source numerical data and unprocessed blots are provided. Source data
Amino-acid-starvation experiments were carried out as described before[42],[43]. […] For the lipid depletion experiments, cells were cultured in medium containing 10% charcoal-stripped FBS (A3382101, Thermo Fisher Scientific), instead of full FBS, for 24 h before treatments with FASN inhibitors were performed. For FA supplementation, each FA was first conjugated to 10% FA-free BSA (fraction V; cat. no. 10735086001, Roche) for 1 h at 50 °C in a 50:50 volumetric ratio. The BSA-conjugated C16:0, C16:1, C18:1 and C18:2 FAs (100 μM) were then added to the media both 16 h previous to and at the start of the treatment with FASN inhibitors.
For standard SDS–PAGE and immunoblotting experiments, cells from a well of a 12-well plate were lysed in 250 μl of ice-cold Triton lysis buffer (50 mM Tris pH 7.5, 1% Triton X-100, 150 mM NaCl, 50 mM NaF, 2 mM Na-vanadate and 0.011 g ml^−1 β-glycerophosphate) supplemented with 1×PhosSTOP phosphatase inhibitors (cat. no. 4906837001, Roche) and 1×cOmplete protease inhibitors (cat. no. 11836153001, Roche) for 10 min on ice. The samples were clarified by centrifugation (20,000g, 15 min, 4 °C) and the supernatants were boiled in 1×SDS sample buffer (5×SDS sample buffer: 350 mM Tris–HCl pH 6.8, 30% glycerol, 600 mM DTT, 12.8% SDS and 0.12% bromophenol blue). The band intensities were quantified using the ImageJ software.

[2] = biological target: T1, mTORC1 (Homo sapiens, UniProt P42345); experiment: mTORC1 complex stability/composition, mTOR co-immunoprecipitation of Raptor and mLST8; conditions: 1 mM Mal-CoA added to cell lysates before immunoprecipitation
T1 construct: endogenous mTORC1 complexes were purified from HEK293FT cells; endogenous in cells; host or cells: HEK293FT (immunoprecipitation of endogenous mTOR); the 4E-BP1 substrate was made in E. coli BL21 RP
Description: For the mammalian endogenous protein co-immunoprecipitation experiments, cells of a near-confluent 10-cm dish were lysed in CHAPS IP buffer (50 mM Tris pH 7.5, 0.3% CHAPS detergent, 150 mM NaCl, 50 mM NaF, 2 mM Na-vanadate and 0.011 g ml^−1 β-glycerophosphate) supplemented with 1×PhosSTOP phosphatase inhibitors and 1×EDTA-free cOmplete protease inhibitors (11873580001, Roche) for 10 min on ice. The samples were clarified by centrifugation (20,000g, 15 min, 4 °C) and the supernatants were subjected to immunoprecipitation by the addition of 3 μl of each antibody, incubation at 4 °C with rotation for 3 h, followed by incubation (4 °C with rotation) with 30 μl of a pre-washed Protein A agarose bead slurry (cat. no. 11134515001, Roche) for an additional hour. The beads were then washed four times with CHAPS IP wash buffer (50 mM Tris pH 7.5, 0.3% CHAPS detergent, 150 mM NaCl and 50 mM NaF) and boiled in 1×SDS loading buffer. A portion of the samples was kept aside as the input before the addition of antibodies. The samples were analysed by SDS–PAGE and the presence of co-immunoprecipitated proteins was detected by immunoblotting with the appropriate specific antibodies.
To test whether Mal-CoA influences mTORC1 complex stability/composition, 1 mM Mal-CoA lithium salt solution was added to the lysates before the immunoprecipitation of mTOR, as described earlier. […]

## CC(C)(COP(=O)(O)OP(=O)(O)OCC1OC(n2cnc3c(N)ncnc32)C(O)C1OP(=O)(O)O)C(O)C(=O)NCCC(=O)NCCSC(=O)CC(=O)O (stereo not drawn) [Mal-CoA, malonyl-CoA]
[1]; ED Fig. 4n, relative to DMSO
  p-S6K(T389)/S6K, Mean: 0.5757
[1]; HEK293FT, 250 μM Mal-CoA in medium, 30 min
  mTORC1 activity after exogenous addition of Mal-CoA: significant drop; also recorded: capable of downregulating
[2]
  mTORC1 stability (interaction of mTOR with Raptor and mLST8): did not influence
